The test system of assay [1] is adalimumab-producing CHO cell line. Description: Example 2 culture growth & productivity, HyClone CDM4CHO. It is filed as cell-based, Chinese Hamster. Particulars: galactose 0 to 40 mM and/or manganese chloride up to 10 μM. As to the method: (§1) For all studies with CHO cell lines described throughout this invention, samples were collected daily and measured for cell density and viability using a Cedex cell counter. Retention samples for titer analysis via Poros A method were collected by centrifugation at 12,000 RPM for 5 min when the culture viability began declining. The cultures were harvested by collecting 125 mL aliquots and centrifuging at 3,000 RPM for 30 min when culture viability was near or below 50%. All supernatants were stored at −80° C. until analysis.
Growth and production media for the adalimumab-producing CHO cell line were prepared using Thermo Scientific HyClone chemically defined media CDM4CHO without L-glutamine (Catalogue #SH30558.02). […] All media were filtered through Corning 0.5 L or 1 L (0.22 μm PES) filter systems and stored at 4° C. until use.
Upon thaw, cells were adapted to and expanded in HyClone CDM4CHO media for 5 (2 to 3 day each) passages in a combination of 250 mL, 500 mL, and 1000 mL Corning vented non-baffled shake flasks. Production cultures were initiated in duplicate 500 mL Corning vented non-baffled shake flasks (200 mL working volume) at an initial VCD of approximately 0.5×10^6 cells/mL. Cultures were maintained on orbital shakers at 110 RPM in a dry incubator at 35° C. and 5% CO2. […]

The test system is the same in assay [2]. Description: Example 1 oligosaccharide analysis, batch shake flasks, CDM GIA-1. The assay is classed as cell-based, Chinese Hamster. As to the method:
The studies were performed in either a batch process in shake flasks or a fed-batch process in 3 L bioreactors.
Growth and production media for the adalimumab-producing CHO cell line were prepared using a proprietary Life Technologies Gibco chemically defined media, GIA-1. […] All media were filtered through Corning 0.5 L or 1 L filter systems 0.22 μm Poly(Ether Sulfone) (PES) and stored at 4° C. until use.
The cell line utilized for both studies was generated from the adalimumab-producing CHO cell utilized in Example 3 by adapting it to chemically defined GIA-1 media for 7 (2 to 3 day each) passages in a combination of 250 mL and 500 mL Corning vented non-baffled shake flasks before freezing.
Upon thaw, for the batch shake flask study, cells were expanded for 3 to 5 (2 to 3 day each) passages in a combination of 250 mL and 500 mL Corning vented non-baffled shake flasks. Production cultures were initiated in duplicate 500 mL Corning vented non-baffled shake flasks (200 mL working volume) at an initial viable cell density (VCD) of approximately 0.5×10^6 cells/mL. Cultures were maintained on orbital shakers at 110 revolutions per minute (RPM) in a dry incubator at 35° C. and 5% CO2. The shake flask study was run in an extended batch mode by feeding a glucose solution (1.25% (v/v) of 40% solution) when the media glucose concentration fell below 3 g/L.
as §1
(§2) For all studies, the harvest samples were Protein A purified and prepared for the oligosaccharide assay using the following procedures. As a first step in the process of establishing the identity and quantifying the oligosaccharides, they are released from the protein by enzymatic digestion with N-glycanase. Once the glycans are released, the free reducing end of each glycan is labeled by reductive amination with a fluorescent tag, 2-aminobenzamide (2-AB). The resulting labeled glycans are separated by normal-phase HPLC (NP-HPLC) in acetonitrile: 50 mM ammonium formate, pH 4.4, and detected by a fluorescence detector. Quantitation is based on the relative area percent of detected sugars. Throughout this invention, the relative area percentages of the agalactosyl fucosylated biantennary oligosaccharides, denoted as NGA2F+NGA2F-GlcNAc sum, and the galactose-containing fucosylated biantennary oligosaccharides NA1F+NA2F sum are reported and discussed.
Galactose was supplemented at the following levels in production media: 0, 10, 20, 40, and 100 mM. […] Culture growth, productivity, and product quality data for control cultures is the average of the 3 experiments.

Assay [3] has the same test system. Description: Example 1 culture growth & productivity, batch shake flasks. Particulars: galactose 0 to 100 mM and/or manganese chloride up to 80 μM. The assay is classed as cell-based, Chinese Hamster. As for the experimental part: All supernatants were stored at −80° C. until analysis. […] Culture growth, productivity, and product quality data for control cultures is the average of the 3 experiments.

Assay [4] concerns adalimumab-producing CHO cell line #2. Description: Example 4 oligosaccharide analysis, CDM GIA-1, batch shake flasks. The assay is classed as cell-based, Chinese Hamster. As to the method: as §1, §2
Growth and production media for the adalimumab-producing CHO cell line #2 were prepared using a proprietary Life Technologies Gibco chemically defined media, GIA-1. […] All media were filtered through Corning 0.5 L or 1 L filter systems (0.22 μm PES) and stored at 4° C. until use.
Upon thaw, cells were expanded for 5 to 8 (2 to 3 day each) passages in a combination of 250 mL, 500 mL, and 1000 mL Corning vented non-baffled shake flasks. Production cultures were initiated in duplicate 500 mL Corning vented non-baffled shake flasks (200 mL working volume) at an initial VCD of approximately 0.5×10^6 cells/mL. Cultures were maintained on orbital shakers at 180 RPM in a dry incubator at 35° C. and 5% CO2. A glucose solution (1.25% (v/v) of 40% solution) was fed when the media glucose concentration fell below 3 g/L.
Galactose was supplemented at the following levels in production media: 0, 10, and 20 mM. […] This study was run in 2 blocks.

The subject of assay [5] is adalimumab-producing CHO cell line. Description: Example 3 oligosaccharide analysis, hydrolysate-based media, batch shake flasks. The assay is classed as cell-based, Chinese Hamster. As to the method:
as §1, §2
(§3) All media were filtered through Corning 0.5 L or 1 L filter systems (0.22 μm PES) and stored at 4° C. until use.
(§4) Production cultures were initiated in duplicate 500 mL Corning vented non-baffled shake flasks (200 mL working volume) at an initial VCD of approximately 0.5×10^6 cells/mL. Cultures were maintained on orbital shakers at 110 RPM in a dry incubator at 35° C. and 5% CO2. A glucose solution (1.25% (v/v) of 40% solution) was fed when the media glucose concentration fell below 3 g/L.

Assay [6] shares this test system. Particulars: 10 μM manganese chloride; within historical variation. As for the experimental part:
as §1, §3, §4

The mark [7] stands for this setting: 100 μM manganese chloride alone.

As to `O=C[C@H](O)[C@@H](O)[C@@H](O)[C@H](O)CO` [galactose, D(+)Galactose], the “cell growth and viability profiles” value in assay [1] was “comparable to the control cultures”; in assay [3] it was “comparable to control cultures”. Besides, the “decrease in the NGA2F+NGA2F-GlcNac sum” value in assay [2] (40 mM galactose alone) and in assay [4] (10 mM galactose alone) was 6% throughout. Moreover, the “maximum change in the NA1F+NA2F oligosaccharides” value in assay [2] (100 mM galactose alone) was determined as 7%. For the same compound, the “maximum change in the NGA2F+NGA2F-GlcNac” value in assay [2] (100 mM galactose alone) turned out to be 7%. The entries for the “maximum decrease in the NGA2F+NGA2F-GlcNac sum” value in assay [4] (20 mM galactose alone) and in assay [5] (galactose alone up to 40 mM) were 9% and 4%, respectively. The “maximum increase in the NA1F+NA2F sum” value in assay [4] (20 mM galactose alone) is 10%; in assay [5] (galactose alone up to 40 mM) it was 4%.

Turning to “Manganese (II) Chloride [manganese chloride]”, the figures for the “cell growth and viability profiles” value in assay [1] and in assay [3] were “comparable to the control cultures” and “comparable to control cultures”, respectively. The “decrease in the NGA2F+NGA2F-GlcNac sum” value in assay [2] (40 μM manganese chloride alone) is 6%; in assay [4] (10 μM manganese chloride alone), 18%; in assay [5] (manganese chloride alone, range 0 to 40 μM, within assay variability), “approximately 1%”. Further, in assay [2] (setting [7]), the “maximum change in the NA1F+NA2F oligosaccharides” value was determined as 8%. The “maximum change in the NGA2F+NGA2F-GlcNac” value in assay [2] (setting [7]) was 9%. The “maximum decrease in the NGA2F+NGA2F-GlcNac sum” value in assay [4] (20 μM manganese chloride alone) was 22%. The “maximum increase in the NA1F+NA2F sum” value in assay [4] (20 μM manganese chloride alone) was found to be 23%. Besides, the “maximum VCD compared to all other cultures” value in assay [6] is “slightly higher maximum VCD”.

Values taken from patent US9505834B2, “Methods for controlling the galactosylation profile of recombinantly-expressed proteins” (AbbVie Inc., priority 2011, dated 2016).
